According to patent US10426773B2, “Systems pharmacology for treating ocular disorders” (Case Western Reserve Univeristy, priority 2011, dated 2019):
“Also recorded” adds a separate entry of the source.

How the values were obtained:
Abca4−/−Rdh8−/− mice = assay: Bright light-induced retinal degeneration in Abca4−/−Rdh8−/− mice, ERG retinal function; conditions: pretreatment before light 10,000 lux 30 min; ERG 7 days to 2 weeks after; listed as DOX
[1] = tested on: ROS generation in photoreceptors of Abca4−/−Rdh8−/− mice; assay: In vivo detection of ROS (DHE probe) in retinas of light-exposed Abca4−/−Rdh8−/− mice; design: species or system mouse; conditions: Example 3; DOX 10 mg/kg, GUB 2.0 mg/kg, SQ 0.5 mg/kg ip 30 min prior to light
Procedure: The ROS probe, DHE, at a dose of 20 mg/kg body weight was administered to Abca4^−/−Rdh8^−/− mice via intraperitoneal injection 30 min prior to light exposure. Eye cups obtained after removing the cornea, lens and vitreous body from enucleated eye globes 3 h post light illumination were fixed in 4% paraformaldehyde. Cryosections were prepared from fixed eye cups and cut at 12 am thickness for microscopic assessment of ROS signal fluorescence in the retina.
The ROS probe, DHE, at a dose of 20 mg/kg body weight in 25 μl of DMSO, was administered to Abca4^−/−Rdh8^−/− mice via intraperitoneal injection 1 h prior to light exposure. Eye cups obtained after removing the cornea, lens, and vitreous body from enucleated eye globes 3 h post light illumination were fixed in 4% paraformaldehyde. Cryosections were prepared from fixed eye cups and cut at 12-am thickness for microscopic assessment of ROS fluorescence in the retina with ImageJ software (National Institutes of Health).

[2] = Quantification of selected drugs in mouse serum and eye by LC-MS; assay type: in vivo, C57BL/6J WT mice
Procedure: C57BL/6J WT mice at 6 weeks of age (Jackson Laboratory) were treated with DOX, GUB, or SQ at a single dose of 10, 2, and 0.5 mg per kilogram, respectively. The compound was dissolved in 50% DMSO in PBS (137 mM NaCl, 2.7 mM KCl, 0.67 mM […]). Next, to precipitate excess proteins, 0.3 ml of methanol was added to both the eye homogenate and 0.1 ml of serum. Samples were vortexed for 30 s followed by centrifugation for 15 min at 16,000 g. Clear supernatants were collected and used directly for LC-MS analysis. 2HPO4/KH2PO4, pH 7.4) and administrated by intraperitoneal injection. Thirty minutes later the mice were anesthetized. Blood samples were collected using the technique of cardiac puncture and subsequently centrifuged (5 min, 16,000 g) to collect serum. Prior to harvesting eyes, mice were intracardially perfused with PBS to minimalize blood contamination. Eye balls were immediately homogenized in 0.1 ml of PBS. The homogenate and serum samples were spiked with 100 pmols of internal standard (IS) (parazosin—2-[4-(2-furoyl)piperazin-1-yl]-6,7-dimethoxyquinazolin-4-amine (Sigma Aldrich) or clenbuterol—(RS)-1-(4-Amino-3,5-dichlorophenyl)-2-(tert-butylamino)ethanol (Sigma Aldrich)) for DOX, GUB or SQ quantification, respectively.
Mass spectrometry (MS) based detection and quantification of DOX, GUB, and SQ was performed with a L×Q linear ion trap mass spectrometer (Thermo Scientific) equipped with an electrospray ionization (ESI) interface and coupled to Agilent 1100 HPLC (Agilent Technologies). Separation of drugs and the internal standards was achieved on a reverse phase C18 Phenomenex HPLC column (250×4.60 mm; 5 μm) by a linear gradient of to 100% acetonitrile in water within 15 min at flow rate of 0.5 ml/min. All solvents contained 0.1% formic acid (v/v). The HPLC effluent was sprayed into the MS via an ESI probe operated in the positive ionization mode. Parameters of ionization and detection were tuned with synthetic standards for the drugs to achieve the highest possible sensitivity. Dox and parazosin (internal standard) were detected by selected reaction monitoring (SRM) using m/z 452.2→344.2 and 384.2→247.1 transitions whereas GUB, SQ and their corresponding IS, clenbuterol, was by fragmentation at m/z 231.1→214.0, 206.1→136.0, and 277.1→259.1, respectively. The elution times for DOX, GUB, and SQ were ˜12.8, 12.3, and 10.8 min, respectively. Both internal standards eluted at 12.0 min (FIG. 34). Calibration curves were calculated based on the linear relationship between ratios of SRM ion intensity peak area corresponding to the selected drug and the IS vs. molar ratios of the compounds in the range of 20-500 pmol (FIG. 34H).

BALB/c mice = assay: Light-induced retinal degeneration in BALB/c mice, SLO autofluorescence imaging; assay type: in vivo, mouse; conditions: DOX 10, GUB 2.0, SQ 0.5 mg/kg, 7 days after light
Procedure: SLO (Heidelberg Engineering) was carried out for in vivo whole fundus imaging of mouse retinas. […] Numbers of autofluorescent spots were counted and subjected to statistical analyses as described below.
These drugs were administered to 4-week-old BALB/c mice by intraperitoneal injection 30 min prior to white light exposure at 10,000 lux for 1 h. Retinal morphology was assessed 7 days after light exposure by OCT imaging and histological examination.

For `COc1cc2nc(N3CCN(C(=O)C4COc5ccccc5O4)CC3)nc(N)c2cc1OC.CS(=O)(=O)O` (stereo not drawn) [Doxazosin], the “retinal function by ERG (a-wave and b-wave amplitudes)” value (Abca4−/−Rdh8−/− mice) was “substantial preservation of the scotopic ERG response; also recorded: substantial preservation of this response”, the “ROS generation in photoreceptors (DHE signal)” value [1] was “decreased” and the “Eye ± SD” value ([2]; 30 min after a single ip dose: DOX 10, GUB 2, SQ 0.5 mg per kilogram, mice perfused with PBS) was 11.0 ± 1.7 pmol/eye. For the same compound, the concentration at 30 min ([2]; C57BL/6J, mouse, serum, intraperitoneal, 30 min after a single ip dose: DOX 10, GUB 2, SQ 0.5 mg per kilogram, read-out: Serum ± SD) was 465 ± 128 nM, the “amount in eye compared with level in 0.1 mL of serum” value ([2]; eye volume taken as about 0.1 mL) was 5 times lower and the “autofluorescent spots by SLO” value (BALB/c mice) was “prevented”.
